Earlier results as cited in patent USRE38386E1, “Retardation of metalloproteinase incidental to HIV and/or AIDS” (priority 1997, dated 2004).

Key:
[1] = system: endothelial cell monolayers; details: incubation of HIV-infected monocytes with the proteinase inhibitor
[2] = system: HIV-infected monocytes; details: interferon-gamma at 50 U/ml
[3] = system: 92-kd metalloproteinase (MMP-9)
[4] = system: HIV; details: added to monocytes on day 10 after infection

**Q.** With “TIMP-1: proteinase inhibitor, tissue inhibitor of metalloproteinase” as the substance, how does the “increased permeability of endothelial cell monolayers to 125I albumin” value [1] read?
**A.** inhibited

**Q.** With “interferon-gamma: interferon-gamma, used to treat HIV-infected monocytes” as the substance, how does the “ability of infected monocytes to form an invasive network on matrigel and their invasion through the matrigel matrix” value [2] read?
**A.** inhibited

**Q.** What about the “inhibition of MMP-9 production” value ([3]; added to monocytes on day 10 after infection) of the same substance?
**A.** more than threefold

**Q.** And the “levels of MMP-9” value ([3]; treated 1 day after HIV infection, vs monocytes inoculated with live HIV, heat-inactivated HIV or uninfected control)?
**A.** substantially lower

**Q.** And the “levels of MMP-9 produced by HIV-infected monocytes” value ([3]; treated 1 day prior to infection with HIV, vs untreated HIV-infected monocytes)?
**A.** significant reduction

**Q.** And the “reduction of virus replication” value [4]?
**A.** no significant reduction
